Data published in patent US20110201623A1, “Crystalline Form Of A Cyclopropyl Benzamide Derivative” (priority 2010, published 2011).

How the values were obtained:
[1] = target: human H3 receptor (445 aa) (Homo sapiens, UniProt Q9Y5N1); experiment: Human histamine H3 binding assay with the agonist radioligand [3H]-N-α-methylhistamine; conditions: membranes, SPA, 1.5 nmol/L radioligand, pH 7.4, room temperature; read-out: IC50 equivalent of pIC50, inhibition of specific binding of [3H]-N-α-Methyl Histamine to the human H3 receptor (converted)
Chain of human H3 receptor (445 aa) (Q9Y5N1 whole entry): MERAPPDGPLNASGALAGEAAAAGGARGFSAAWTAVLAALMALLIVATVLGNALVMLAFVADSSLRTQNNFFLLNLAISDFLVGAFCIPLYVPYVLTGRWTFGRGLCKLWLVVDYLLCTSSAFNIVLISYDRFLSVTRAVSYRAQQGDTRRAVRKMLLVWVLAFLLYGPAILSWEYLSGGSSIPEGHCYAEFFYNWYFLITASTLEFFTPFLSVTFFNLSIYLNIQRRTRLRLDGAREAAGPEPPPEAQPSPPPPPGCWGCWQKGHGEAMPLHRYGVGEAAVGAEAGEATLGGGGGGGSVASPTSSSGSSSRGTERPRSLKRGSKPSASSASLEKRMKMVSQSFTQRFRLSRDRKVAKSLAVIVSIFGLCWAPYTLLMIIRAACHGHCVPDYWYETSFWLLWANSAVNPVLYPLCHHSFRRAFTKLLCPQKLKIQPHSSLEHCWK
Experimental: Human Histamine H3 Binding Assay with the Agonist Radioligand [^3H]-N-a-Methylhistamine
The H3 binding assay was used to evaluate the ability of a compound of formula (I) to inhibit [^3H]-N-a-methylhistamine under the conditions as described below: All binding assays were performed in a buffer consisting of 20 mmol/L Hepes, 100 mmol/L NaCl. The pH was set at 7.4 at room temperature. Liquid handling robots were used to prepare, in drug plates, 10 points dose response curves of the compound of formula (I) (3-fold serial dilutions, starting at 10 μmol/L). The assay, performed in 96-well plates, consisted of 100 μL, containing 20 μL of buffer alone for total binding (column #1), 20 μL of imetit (5×) for the non specific binding (column #2), 20 μL of the compound of formula (I) (5×) at varying concentrations (column #3 to #12), plus 20 μL of [3H]-N-a-Methylhistamine (25 000 dpm/well, 1.5 nmol/L) in all wells and finally 60 μL of membranes (20 μg of protein/well) mix is added to start the reaction. Membranes and SPA beads (1000 μg/well) were mixed together and incubated for 30 minutes at room is temperature prior to the start of the assay. […] Plates were then mixed on an orbital mixer, incubated 90 minutes at room temperature, and then read on a Trilux 384™ counter.

[2] = target: hH3 receptors (Homo sapiens, UniProt Q9Y5N1); experiment: [35S]GTPγS binding assay, antagonist mode (RαMH EC80); assay type: biochemical; conditions: RαMH at EC80 (30 nmol/L for hH3), membranes, SPA; read-out: IC50 equivalent of pIC50, inhibition of H3 agonist R-α-Methyl-Histamine stimulated [35S]GTPγS binding (converted)
Chain of hH3 receptors (Q9Y5N1 whole entry): as above
Experimental: Guanosine 5′-O-(3-[^35S]thio)triphosphate [GTPgS] Binding Assay
[^35S]GTPγS binding assay was performed in a buffer consisting of 20 mmol/L Hepes, 100 mmol/L NaCl, 10 mmol/L MgCl2, 3 μg/mL saponine and 10 μmol/L GDP. The pH was set at 7.4 at room temperature. Liquid handling robots were used to prepare, in drug plates, 10 points dose response curves of the compound of formula (I) (3-fold serial dilutions, starting at 1 μmol/L for hH3 receptors and 10 μmol/L for rH3 receptors). The assay, performed in 96-well plates, consisted of 120 μL, containing 20 μL of RαMH (EC80, antagonist mode), 20 μL the compound of formula (I) at varying concentrations, 20 μL of the tracer [^35S]GTPγS (60000 dpm/well, 0.2 nmol/L) and finally 60 μL of membranes (10 μg of protein/well for hH3) mix is added to start the reaction. Membranes, SPA beads (125 μg/well) and GDP were mixed together and incubated for 30 minutes at room temperature prior to the start of the assay. Eight wells were used to define baseline and RαMH EC80 (30 nmol/L for hH3 receptors) define the positive control. Plates were then mixed (2 minutes) on an orbital mixer, incubated 60 minutes at room temperature, and then read on a Trilux 384™ counter.

- IC50 [1]: 13 nM
- IC50 [2]: 3 nM
SMILES: NC(=O)c1ccc([C@H]2C[C@@H]2C(=O)N2CCN(C3CCC3)CC2)cc1 [Compound (I), 4-{(1S,2S)-2-[(4-cyclobutylpiperazin-1-yl)carbonyl]-cyclopropyl}-benzamide]
